Patent US8822530B2, “Sulfur derivatives as chemokine receptor modulators” (Allergan, Inc., priority 2010, dated 2014)

Target: T1, CCR2 receptor (Homo sapiens, UniProt P41597)
T1 construct: expressed in transfected cells
Test: Calcium activity assay on FLIPR Tetra in HEK-Gqi5 cells stably expressing CCR2
Format: cell-based
Description: HEK-Gqi5 cells stably expressing CCR2 were cultured in DMEM high glucose, 10% FBS, 1% PSA, 400 μg/ml geneticin and 50 μg/ml hygromycin. Appropriate positive control chemokines (MCP-1, MIP1A or RANTES) was used as the positive control agonist for screening compound-induced calcium activity assayed on the FLIPR^Tetra. The drug plates were prepared in 384-well microplates using the EP3 and the MultiPROBE robotic liquid handling systems. Compounds were synthesized and tested for CCR2 activity.

T1 sequence (P41597 whole entry): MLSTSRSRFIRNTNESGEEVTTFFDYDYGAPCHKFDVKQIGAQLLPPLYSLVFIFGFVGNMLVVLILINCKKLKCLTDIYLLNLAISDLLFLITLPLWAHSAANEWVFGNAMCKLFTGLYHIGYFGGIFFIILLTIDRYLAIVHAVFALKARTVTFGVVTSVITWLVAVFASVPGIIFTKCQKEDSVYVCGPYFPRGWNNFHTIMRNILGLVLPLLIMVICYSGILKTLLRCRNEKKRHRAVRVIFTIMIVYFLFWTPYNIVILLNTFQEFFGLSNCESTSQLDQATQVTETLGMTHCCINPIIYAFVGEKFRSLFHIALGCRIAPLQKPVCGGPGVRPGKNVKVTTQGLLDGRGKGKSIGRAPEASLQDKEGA

| Compound | CCR2 % ANTAGONISM [%] | IC50 [nM] |
| --- | --- | --- |
| COC(=O)CCSc1ccc(Cl)cc1NS(=O)(=O)c1ccc(Cl)cc1F [methyl 3-[(4-chloro-2-{[(4-chloro-2-fluorophenyl)sulfonyl]amino}phenyl)sulfanyl]propanoate] | 79 | 995 |
| COC(=O)CC[S+]([O-])c1ccc(Cl)cc1NS(=O)(=O)c1ccc(Cl)cc1F (centres unmarked) [methyl 3-[(4-chloro-2-{[(4-chloro-2-fluorophenyl)sulfonyl]amino}phenyl)sulfinyl]propanoate] | 93 | 98 |
| COC(=O)CCS(=O)(=O)c1ccc(Cl)cc1NS(=O)(=O)c1ccc(Cl)cc1F [methyl 3-[(4-chloro-2-{[(4-chloro-2-fluorophenyl)sulfonyl]amino}phenyl)sulfonyl]propanoate] | 82 | 212 |
| CC(C)(C)OC(=O)CNC(=O)c1ccc(CSc2ccc(Cl)cc2NS(=O)(=O)c2ccc(Cl)c(C(F)(F)F)c2)cc1 [tert-butyl ({[4-({[4-chloro-2-({[4-chloro-3-(trifluoromethyl)phenyl]sulfonyl}amino)phenyl]sulfanyl}methyl)phenyl]carbonyl}amino)acetate] | 43 | 657 |
| CC(C)(C)OC(=O)CNC(=O)c1ccc(C[S+]([O-])c2ccc(Cl)cc2NS(=O)(=O)c2ccc(Cl)c(C(F)(F)F)c2)cc1 (centres unmarked) [tert-butyl ({[4-({[4-chloro-2-({[4-chloro-3-(trifluoromethyl)phenyl]sulfonyl}amino)phenyl]sulfinyl}methyl)phenyl]carbonyl}amino)acetate] | 93 | – |
| CC(C)(C)OC(=O)CNC(=O)c1ccc(CS(=O)(=O)c2ccc(Cl)cc2NS(=O)(=O)c2ccc(Cl)c(C(F)(F)F)c2)cc1 [tert-butyl ({[4-({[4-chloro-2-({[4-chloro-3-(trifluoromethyl)phenyl]sulfonyl}amino)phenyl]sulfonyl}methyl)phenyl]carbonyl}amino)acetate] | 77 | 2660 |
